Ratio IC50 and IC50 data for four molecules are collected here from ChEMBL document CHEMBL4020739, “Investigation of the structural requirements of K-Ras(G12D) selective inhibitory peptide KRpep-2d using alanine scans and cysteine bridging” (Bioorg Med Chem Lett, 2017).

Test [1] is filed under the species Homo sapiens. Description: Selectivity ratio of IC50 for inhibition of biotinylated wild type K-Ras (unknown origin) to IC50 for inhibition of biotinylated K-Ras G12D mutant (unknown origin).
Test [2] deals with T1, GTPase KRas (Homo sapiens, UniProt P01116, G12D). The experiment in a line: Inhibition of biotinylated K-Ras G12D mutant (unknown origin) assessed as reduction in SOS1 (564 to 1049 residues)-mediated BODIPY-GDP-GTP exchange after 1 hr in presence of DTT by TR-FRET assay. (TR-FRET usually uses a lanthanide donor and a delayed reading to cut background.)
The target of test [3] is T1, GTPase KRas. The experiment in a line: Inhibition of biotinylated K-Ras G12D mutant (unknown origin) assessed as reduction in SOS1 (564 to 1049 residues)-mediated BODIPY-GDP-GTP exchange after 1 hr by TR-FRET assay.
For test [4], the species on record is Homo sapiens. The experiment in a line: Selectivity ratio of IC50 for inhibition of biotinylated K-Ras G12C mutant (unknown origin) to IC50 for inhibition of biotinylated K-Ras G12D mutant (unknown origin).
The target in test [5] is GTPase KRas (Homo sapiens, UniProt P01116). The experiment in a line: Inhibition of biotinylated wild-type K-Ras (unknown origin) assessed as inhibition of human SOS1 (564 to 1049 residues)-mediated BODIPY-GDP-GTP exchange after 1 hr by TR-FRET assay.
Test [6] concerns the target GTPase KRas (Homo sapiens, UniProt P01116, G12C). Description: Inhibition of biotinylated K-Ras G12C mutant (unknown origin) assessed as reduction in SOS1 (564 to 1049 residues)-mediated BODIPY-GDP-GTP exchange after 1 hr by TR-FRET assay.

Peptide text beside a SMILES is read from it.

What is called IC50 is the concentration needed to halve the response being measured.

As to `CC[C@H](C)[C@@H]1NC(=O)[C@H](Cc2ccc(O)cc2)NC(=O)[C@H](CC(C)C)NC(=O)[C@@H]2CCCN2C(=O)[C@@H](NC(=O)[C@H](CCCNC(=N)N)NC(=O)[C@H](CCCNC(=N)N)NC(=O)[C@H](CCCNC(=N)N)NC(=O)[C@H](CCCNC(=N)N)NC(C)=O)CSSC[C@@H](C(=O)N[C@@H](CCCNC(=N)N)C(=O)N[C@@H](CCCNC(=N)N)C(=O)N[C@@H](CCCNC(=N)N)C(=O)N[C@@H](CCCNC(=N)N)C(N)=O)NC(=O)[C@H](C(C)C)NC(=O)[C@H](C)NC(=O)[C@H](CC(=O)O)NC(=O)[C@H](Cc2ccc(O)cc2)NC(=O)[C@H](CO)NC1=O` (HELM PEPTIDE1{[ac].R.R.R.R.C.P.L.Y.I.S.Y.D.A.V.C.R.R.R.R.[am]}$PEPTIDE1,PEPTIDE1,6:R3-16:R3$$$V2.0), the Ratio IC50 in the test listed under Homo sapiens [1] amounted to 80; in the test listed under Homo sapiens [4], 4. The IC50 is 7.4 nM at GTPase KRas [2], 2.7 nM at GTPase KRas [3], 216 nM on GTPase KRas [5] and 12 nM on GTPase KRas [6].

Consider `CC(=O)N[C@@H](CCCNC(=N)N)C(=O)N[C@@H](CCCNC(=N)N)C(=O)N[C@@H](CCCNC(=N)N)C(=O)N[C@@H](CCCNC(=N)N)C(=O)N[C@H]1CSSC[C@@H](C(=O)N[C@@H](CCCNC(=N)N)C(=O)N[C@@H](CCCNC(=N)N)C(=O)N[C@@H](CCCNC(=N)N)C(=O)N[C@@H](CCCNC(=N)N)C(N)=O)NC(=O)[C@H](C(C)C)NC(=O)[C@@H]2CCCN2C(=O)[C@H](CC(=O)O)NC(=O)[C@H](Cc2ccc(O)cc2)NC(=O)[C@H](CO)NC(=O)[C@H](C)NC(=O)[C@H](Cc2ccc(O)cc2)NC(=O)[C@H](CC(C)C)NC(=O)[C@@H]2CCCN2C1=O` (HELM PEPTIDE1{[ac].R.R.R.R.C.P.L.Y.A.S.Y.D.P.V.C.R.R.R.R.[am]}$PEPTIDE1,PEPTIDE1,6:R3-16:R3$$$V2.0), for which the Ratio IC50 in the test listed under Homo sapiens [1] came out at 2; in the test listed under Homo sapiens [4], 0.3. The IC50 on GTPase KRas [2] was 73500 nM; at GTPase KRas [3], 20600 nM; at GTPase KRas [5], 39300 nM; on GTPase KRas [6], 5190 nM.

Turning to `CC[C@H](C)[C@@H]1NC(=O)[C@H](Cc2ccc(O)cc2)NC(=O)[C@H](CC(C)C)NC(=O)[C@@H]2CCCN2C(=O)[C@@H](NC(=O)[C@H](CCCNC(=N)N)NC(=O)[C@H](CCCNC(=N)N)NC(=O)[C@H](CCCNC(=N)N)NC(=O)[C@H](CCCNC(=N)N)NC(C)=O)CSSC[C@@H](C(=O)N[C@@H](CCCNC(=N)N)C(=O)N[C@@H](CCCNC(=N)N)C(=O)N[C@@H](CCCNC(=N)N)C(=O)N[C@@H](CCCNC(=N)N)C(N)=O)NC(=O)[C@H](C(C)C)NC(=O)[C@@H]2CCCN2C(=O)[C@H](C)NC(=O)[C@H](Cc2ccc(O)cc2)NC(=O)[C@H](CO)NC1=O` (HELM PEPTIDE1{[ac].R.R.R.R.C.P.L.Y.I.S.Y.A.P.V.C.R.R.R.R.[am]}$PEPTIDE1,PEPTIDE1,6:R3-16:R3$$$V2.0), the figures for the Ratio IC50 in the test listed under Homo sapiens [1] and in the test filed under Homo sapiens [4] were 4 and 0.06, respectively. Besides, the IC50 at GTPase KRas [2] is more than 100000 nM; on GTPase KRas [3], 15400 nM; at GTPase KRas [5], 65000 nM; on GTPase KRas [6], 975 nM.

For `CC[C@H](C)[C@@H]1NC(=O)[C@H](Cc2ccc(O)cc2)NC(=O)[C@H](CC(C)C)NC(=O)[C@@H]2CCCN2C(=O)[C@@H](NC(=O)[C@H](CCCNC(=N)N)NC(=O)[C@H](CCCNC(=N)N)NC(=O)[C@H](CCCNC(=N)N)NC(=O)[C@H](CCCNC(=N)N)NC(C)=O)CSSC[C@@H](C(=O)N[C@@H](CCCNC(=N)N)C(=O)N[C@@H](CCCNC(=N)N)C(=O)N[C@@H](CCCNC(=N)N)C(=O)N[C@@H](CCCNC(=N)N)C(N)=O)NC(=O)[C@H](C(C)C)NC(=O)[C@@H]2CCCN2C(=O)[C@H](CC(=O)O)NC(=O)[C@H](Cc2ccc(O)cc2)NC(=O)[C@H](C)NC1=O` (HELM PEPTIDE1{[ac].R.R.R.R.C.P.L.Y.I.A.Y.D.P.V.C.R.R.R.R.[am]}$PEPTIDE1,PEPTIDE1,6:R3-16:R3$$$V2.0), the Ratio IC50 in the test listed under Homo sapiens [1] was 121; in the test filed under Homo sapiens [4], 6. For the same molecule, the IC50 was determined as 22 nM on GTPase KRas [2], 6.3 nM at GTPase KRas [3], 764 nM at GTPase KRas [5] and 36 nM on GTPase KRas [6].
